Experimental data taken from patent US8012983B2, “Substituted triazolopyrazines useful for the treatment of degenerative and inflammatory diseases” (Galapagos NV, priority 2008, dated 2011).

Columns and labels:
MAPKAPK5 = target: T1, MAPKAPK5 (Homo sapiens, UniProt Q8IW41); assay: MAPKAP-K5 FlashPlate kinase assay; format: biochemical; settings: 0.6 μM ATP, 30 minutes, room temperature
T1 sequence (Q8IW41 1-471 isoform Q8IW41-2): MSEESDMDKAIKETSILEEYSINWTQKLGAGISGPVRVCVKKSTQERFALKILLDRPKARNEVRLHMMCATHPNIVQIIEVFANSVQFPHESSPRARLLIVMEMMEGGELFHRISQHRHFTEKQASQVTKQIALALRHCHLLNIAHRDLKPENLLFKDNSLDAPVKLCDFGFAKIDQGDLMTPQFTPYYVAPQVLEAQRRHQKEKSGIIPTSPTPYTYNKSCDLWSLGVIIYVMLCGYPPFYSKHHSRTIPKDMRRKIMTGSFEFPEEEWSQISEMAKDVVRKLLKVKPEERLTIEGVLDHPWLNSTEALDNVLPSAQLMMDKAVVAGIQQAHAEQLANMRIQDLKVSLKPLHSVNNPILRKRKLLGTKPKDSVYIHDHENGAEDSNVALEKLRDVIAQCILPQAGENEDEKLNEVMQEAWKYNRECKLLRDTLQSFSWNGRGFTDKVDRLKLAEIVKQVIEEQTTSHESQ
Protocol: MAPKAP-K5 reactions are performed in FlashPlate format using 0.1 or 0.2 μCi 33P-ATP; 0.6 μM ATP; 1 mU MAPKAP-K5; 3 μM MAPKAP-K5 peptide substrate, incubated at room temperature for 30 minutes.
The MAPKAP-K5 kinase reaction is performed in a 384 well polypropylene plate (Matrix Technologies) and then transferred to a streptavidin-coated 384 well flashplate (Perkin-Elmer). To wells containing 2 μL test compound or standard inhibitor, 13 μL Enzyme mix or diluent are added using a Hydra (Robbins Scientific). Reactions are started by addition of 10 μL of [2.5×] substrate cocktail using a Multidrop (Thermo-Labsystems), to give final concentrations in the assay of: • 1 mU MAPKAP-K5 • 3 μM MAPKAP-K5 peptide substrate • 0.6 μM ATP • 0.004 μCi [33P]-γ-ATP/μL • 1× reaction buffer
Plates are incubated at room temperature for 30 minutes. Reactions are terminated by the addition of 25 μL EDTA (50 mM) to each well using a Micro-fill (Biotek). Reactions are transferred to a streptavidin-coated flashplate using a Zymark robotic system. Plates are incubated for 60 minutes at room temperature. All wells are washed 3 times with 100 μl phosphate buffered saline using a Tecan plate washer. Radioactivity is determined by scintillation counting of the flashplate (empty wells) on a Packard TopCount.
Enzyme Mix: • Enzyme • 50 mM Tris Hcl (pH 7.5) • 0.1 mM EGTA • 2 mM DTT • 1 mg/mL BSA
Reaction Buffer: • 50 mM Tris Hcl (pH 7.5) • 0.1 mM EGTA • 10 mM Magnesium acetate • 2 mM DTT

[1] = test system: MMP13 expression in SW1353 chondrosarcoma cell line; assay: MMP13 assay: IL-1/OSM-driven MMP13 expression in SW1353 cells (MMP13 ELISA); format: cell-based; settings: Homo sapiens, IL-1β and OSM, 48 hr
Protocol: The protocol of the MMP13 ELISA is described in section 4.1, then testing of compounds on release of IL-1/OSM-driven MMP13 expression in SW1353 chondrosarcoma cell line is described in section 4.2.
A 384 well format ELISA for measurement of MMP13 was developed. Various primary antibodies were tested, as well as various ELISA protocols. The following protocol is developed and validated to measure MMP13 levels in supernatant of cell cultures in 384 well plates.
Black maxisorb 384 well plates (Nunc 460518) are coated with 35 μl of a buffered solution containing 1.5 μg/mL anti-MMP13 antibody MAB511 (R&D systems). The antibody is diluted in carbonate-bicarbonate coating buffer (1.59 g Na2CO3 (Sigma S-7795) and 2.93 g NaHCO3 (Sigma S-5761) in 1 L MilliQ water, adjusted to pH 9.6). After overnight incubation at 4° C., wells are washed twice with 100 μL PBST (80 g NaCl, 2 g KCl (Sigma), 11.5 g Na2HPO4.7H2O and 2 g KH2PO4 in 10 L milliQ water; pH 7.4+0.05% Tween-20 (Sigma)) and blocked with 100 μL/well blocking buffer (5% non fat dry milk in PBS). After overnight incubation at 4° C., wells are washed twice with 100 μL PBST. The PBST is removed and 35 μL of sample is transferred to the ELISA plates. After 4 hr incubation at RT, plates are washed twice with PBST and incubated for 1 hr at 37° C. with 35 μL/well 1.5 mM APMA solution (a 10 mM APMA stock solution is prepared one day before (35.18 mg APMA (Sigma A-9563) in 10 mL 0.1M NaOH (Merck 1.06469.1000) and stored at 4° C. Before use, the 10 mM APMA stock solution is diluted to 1.5 mM in 1×APMA buffer (10× APMA buffer: 500 mM Tris (Roche 708976), 50 mM CaCl2 (Sigma C-5080), […] ZnCl2 (Sigma Z-0173), 1.5 M NaCl (Calbiochem 567441), 0.5% Brij35 (Sigma 430 AG-6) and adjust to pH 7.0). After activation of MMP13 by APMA, plates are washed again two times with 100 μL PBST/well and 35 μL of substrate solution is added to each well. Substrate solution is prepared as follows: OmniMMP Fluorescent substrate (Biomol P-126) stock solution (2 mM in DMSO, stored at −20° C.) is diluted in 1× OmniMMP buffer (10× OmniMMP buffer: 500 mM Hepes (Sigma H4034), 100 mM CaCl2 (Sigma C5080), 0.5% Brij35 (Sigma 430 AG-6; adjusted to pH 7.0) to a final concentration of 0.01 mM. After an overnight incubation at 37° C., the active MMP13 in the sample has cleaved the substrate and released fluorescence. Readout is performed on the EnVision (Perkin Elmer) using 320 nm excitation/405 nm emission filters.
Human chondrosarcoma cell line SW1353 was acquired from ATCC and grown in DMEM supplemented with 10% heat-inactivated FBS and 1× penicillin/streptomycin (Invitrogen) in a humidified 5% CO2 incubator at 37° C. Aliquots of the cells were frozen and cryopreserved in liquid nitrogen. Starting from a cryopreserved aliquot, cells are further grown by sub-culturing at a 1/5-1/8 ratio twice a week by trypsinisation.
Starting from the compound master stocks (all at 10 mM concentration in 100% DMSO) a 3-fold serial dilution is made in 96-well plates in 100% DMSO. Then, plates are futher diluted 50-fold in M199 medium supplemented with 1% heat-inactivated FBS to obtain an intermediate work stock.
At day 1, SW1353 cells are seeded in 96-well plates (flat bottom, tissue culture treated, Greiner) at a density of 15000 cells/well in 120 μL growth medium. The next day, 15 μL compound out of the intermediate work stock is added. After an incubation period of 60 minutes, which allows the compounds to equilibrate and enter the cells, cells are stimulated with a mixture of IL-1β and OSM, added in a volume of 15 μL to obtain final concentrations of 1 ng/ml IL-1β and 25 ng/ml OSM. For that, stocks of IL-1 (10 μg/ml) and OSM (25 μg/ml) (both PeproTech) were diluted to 10 ng/ml and 250 ng/ml respectively, in M199 medium supplemented with 1% FBS. After incubation for 48 hr, the cell supernatant was harvested and an appropriate dilution was processed in the MMP13 ELISA as described above, delivering raw data (RFU: relative fluorescence units). […]

[2] = test system: MMP1 expression by activated synovial fibroblasts (RASFs); assay: 'MMP assay': complex trigger-induced MMP1 expression by synovial fibroblasts (MMP1 ELISA); format: cell-based; settings: Homo sapiens, Fibroblast; RASFs, complex trigger, 48 hrs; read-out: MMP1 IC50
Protocol: A 384-well format ELISA for measurement of MMP1 is developed. Various primary antibodies are tested, as well as various ELISA protocols. The following protocol is developed and validated to measure MMP1 levels in SF supernatant in 384 well plates: white Lumitrac 600 384 well plates (Greiner) are coated with 2 μg/mL anti-MMP1 antibody MAB1346 (Chemicon). The antibody is diluted in buffer 40 (1.21 g Tris base (Sigma), 0.58 g NaCl (Calbiochem) and 5 ml 10% NaN3 (Sigma) in 1 L milliQ water and adjusted to pH 8.5). After overnight incubation at 4° C., plates are washed with PBS (80 g NaCl, 2 g KCl (Sigma), 11.5 g Na2HPO4.7H2O and 2 g KH2PO4 in 10 L milliQ; pH 7.4) and blocked with 100 μL/well Casein buffer (2% Casein (VWR International) in PBS). Next day, casein buffer is removed from ELISA plates and replaced by 50 μL/well EC buffer (4 g casein, 2.13 g Na2HPO4 (Sigma), 2 g bovine albumin (Sigma), 0.69 g NaH2PO4.H2O (Sigma), 0.5 g CHAPS (Roche), 23.3 g NaCl, 4 ml 0,5 M EDTA pH 8 (Invitrogen), 5 ml 10% NaN3 in 1 L milliQ and adjusted to pH 7.0). 0.25 mM DTT (Sigma) is added to the thawed samples plates. After removal of the EC buffer, 20 μL of sample is transferred to the ELISA plates. After overnight incubation at 4° C. plates are washed twice with PBS and once with PBST (PBS with 0.05% Tween-20 (Sigma)) and incubated with 35 μL/well biotinylated anti-MMP1 antibody solution (R&D). This secondary antibody is diluted in buffer C (0.82 g NaH2PO4.H2O, 4.82 g Na2HPO4, 46.6 g NaCl, 20 g bovine albumin and 4 mL 0,5M EDTA pH 8 in 2 L milliQ and adjusted to pH 7.0) at a concentration of 5 μg/mL. After 2 h of incubation at RT, plates are washed as described above and incubated with 50 μL/well streptavidin-HRP conjugate (Biosource). Streptavidin-HRP conjugate is diluted in buffer C at a concentration of 0.25 μg/mL. After 45 min, plates are washed as described above and incubated for 5 min with 50 μL/well BM Chem ELISA Substrate (Roche). Readout is performed on the Luminoscan Ascent Luminometer (Labsystems) with an integration time of 200 msec or with an Envision reader (Perkin Elmer).
The increase of MMP1 expression by SFs upon treatment with cytokines relevant in the field of RA (TNF-α, IL1β and OSM) or a combination thereof is shown in FIG. 2 as white bars. For this experiment, SFs are seeded in 96 well plates, 3,000 cells/well. 24 h later, the medium is changed to M199 medium supplemented with 1% FBS. One day after the medium change, cytokines or combinations thereof are added to the cultures, each cytokine being added to a final concentration of 25 ng/mL. 72 h after cytokine addition, the supernatant is collected and processed in the MMP1 ELISA as described in the protocol given above. In parallel with this experiment, SFs are triggered, using the same protocol, with the supernatant of THP1 cells (2-fold diluted in M199+1% FBS) treated with the same cytokines or combinations of cytokines for 48 h in M199 medium+1% FBS. The induction of the MMP1 expression by SFs triggered with the supernatants of TNF-α-treated THP1 cells is stronger (>4.5 fold induction) as compared to the SFs triggered with recombinant TNF-α alone (3-fold induction) and almost equals the 5-fold induction obtained by a mixture of 3 purified cytokines (TNF-α, IL1βb, OSM). […] As the role of TNF-α in the RA pathogenesis is validated (TNF-α-blockers such as Infliximab and Etanercept show some efficacy in the treatment of RA patients) and the THP-1 cells are representative for monocytes/macrophages present in the joint of RA patients, the TNF-α-based trigger mixture prepared by contacting THP-1 cells with TNF-α will contain factors present in the joints of RA patients and subsequently is relevant to RA. This TNF-α-based complex trigger, further referred to as the ‘complex trigger’, will further be used as basis for the ‘MMP assay’. […]

Compound	IC50 (MAPKAPK5)	IC50 [1]	IC50 [2]
CC(C)N1CC2CCC(C1)N2c1ccc(Nc2ncc(-c3coc(C(N)=O)c3)n3ncnc23)cc1 [Compound 13, 4-{8-(4-(3-isopropyl-3,8-diazabicyclo[3.2.1]octan-8-yl)phenylamino)[1,2,4]-triazolo[1,5-a]pyrazin-5-yl}-furan-2-carboxamide]	0.01 to 100 nM	> 1000 nM	
CC(C)N1C2CCC1CN(c1ccc(Nc3ncc(-c4coc(C(N)=O)c4)n4ccnc34)cc1)C2 [Compound 14, 4-{8-(4-(8-isopropyl-3,8-diazabicyclo[3.2.1]octan-3-yl)phenylamino)-imidazo[1,2-a]pyrazin-5-yl}-furan-2-carboxamide]	101 to 500 nM		> 1000 nM
CC(C)N1C[C@@H]2C[C@H]1CN2c1ccc(Nc2ncc(-c3coc(C(N)=O)c3)n3ncnc23)cn1 [Compound 7, 4-{8-(6-((1S,4S)-5-isopropyl-2,5-diazabicyclo[2.2.1]heptan-2-yl)pyridin-3-ylamino)-[1,2,4]triazolo[1,5-a]pyrazin-5-yl}-furan-2-carboxamide]	0.01 to 100 nM	1 to 500 nM	

The next lines start with results.

IC50 (MAPKAPK5)	Compound	IC50 [1]	IC50 [2]
0.01 to 100 nM	CC(C)N1C[C@H]2C[C@@H]1CN2c1ccc(Nc2ncc(-c3coc(C(N)=O)c3)n3ncnc23)cc1 [Compound 27, 4-[8-({4-[(1R,4R)-5-isopropyl-2,5-diazabicyclo[2.2.1]hept-2-yl]phenyl}amino)[1,2,4]triazolo[1,5-a]pyrazin-5-yl]-2-furamide]		
101 to 500 nM	CC(C)N1CC2CCC1CN2c1ccc(Nc2ncc(-c3coc(C(N)=O)c3)n3ccnc23)cc1 (stereo not drawn) [Compound 10, 4-{8-(4-(5-isopropyl-1-2,5-diazabicyclo[2.2.2]octan-2-yl)phenylamino)-imidazo[1,2-a]pyrazin-5-yl}-furan-2-carboxamide]		> 1000 nM
